Experimental data taken from patent US7355074B2, “Compounds having aromatic rings and side-chain amide-functionality and a method for transporting monovalent anions across biological membranes using the same” (The University of Maryland, priority 2003, dated 2008).
Each block holds one compound with its values, some of them ahead of it.

Experiments:
[1] = voltage-clamp experiments on black lipid membranes; assay type: biochemical
Procedure: FIG. 10(A) represents current events across a BLM in voltage clamp experiments after application of calixarene tetrabutylamide 2 ([…]). The voltage applied was −20 mV for all three recordings. (B) The distribution of conductance ranges observed in voltage clamp experiments with 2 acting as an ion channel.
The voltage-clamp assay was conducted using a setup with two chambers, each filled with an electrolyte solution and separated by a BLM. After voltage was applied across the membrane, a solution of 2 was added to one of the chambers. Subsequent current across the membrane was attributed to ion transport mediated by 2, since control experiments wit DMSO solvent were negative. The abrupt changes in current intensity (events) are consistent with an ion channel mechanism. The relatively long-lasting open states indicate that channels formed by calixarene tetrabutylamide 2 are stable.
Voltage-Clamp Experiments. […] Once calixarene tetrabutylamide 2 was incorporated into the lipid, the current through the membrane was recorded using both a chart recorder and directly digitized and stored as a computer file. The conductance values were calculated by dividing the current by the applied voltage. The events were grouped into conductance ranges of equal magnitude for the purpose of showing the distribution of recorded conductances.

[2] = pH changes in liposomes experiencing a Cl- gradient (oligophenoxyacetamides); assay type: biochemical
Procedure: FIG. 2B illustrates alkanization of the vesicular aqueous compartment upon application of compounds 1-6 to a suspension of NaCl-containing vesicles in isosmomolar Na2SO4 buffer. Concentration of compounds 1-6 in the vesicular suspension was 20 μm (4 mol %). Legend for traces denotes use of oligocompounds 1, 2, 3, 4, 5, 6.
Liposome Preparation for Fluorimetric Assays. Egg yolk L-α-phosphatidylcholine (EYPC ethanol solution, […], 79 μmol) was dissolved in a CHCl3/MeOH mixture, the solution was evaporated under reduced pressure and the resulting thin film was dried under high vacuum for 2 h. The lipid film was hydrated in 1.2 mL of phosphate buffer (10 mM sodium phosphate, pH=6.4, 75-100 mM MnX, M=N^+, K^+, X=Cl^−, SO4^2−, n=1,2) containing 10 μM HPTS (pyranine, 8-hydroxypyrene-1,3,6-trisulfonic acid trisodium salt) for 40 min. During hydration, the suspension was submitted to 5 freeze-thaw cycle (liquid nitrogen, water at rt). The large multilamellar liposome suspension (1 mL) was submitted to high-pressure extrusion at rt (21 extrusions through a 0.1 μm polycarbonate membrane afforded a suspension of LUVs with an average diameter of 100 nm). The LUV suspension was separated from extravesicular dye by size exclusion chromatography (SEC) (stationary phase: Sephadex G-10, mobile phase: phosphate buffer) and diluted with the same phosphate buffer to give a stock solution with a lipid concentration of 11 mM (assuming 100% of lipid was incorporated into liposomes).
Analysis of pH changes in the liposomes experiencing a CT gradient. a) Outwardly directed gradient of Cl:HPTS-loaded vesicles (100 μL of the stock solution), filled with a saline phosphate buffer (10 mM sodium phosphate, pH 6.4, 100 mM NaCl) were suspended in 1.9 mL of an isosmotic phosphate sulfate buffer (10 mM sodium phosphate, pH 6.0, 75 mM Na2SO4) and placed into a fluorimetric cell. The emission of HPTS at 510 nm was monitored with excitation wavelengths at 403 and 460 nm simultaneously. During the experiment, 20 μL of a 0-2 mM DMSO solution of the compound of interest was added through an injection port. Intravesicular pH values were obtained as described for pH-stat transport assays. At the end of experiment, the aqueous compartment of liposomes was equilibrated with extravesicular solution by lysis of liposomes with detergent (40 μL of 5% aqueous Triton X100). b) Inwardly directed gradient of Cl:HPTS-loaded vesicles (100 μL of the stock solution), filled with a isoosimomolar sulfate phosphate buffer (10 mM sodium phosphate, pH 6.0, 75 mM Na2SO4) were suspended in 1.9 mL of an isosmotic phosphate saline buffer (10 mM sodium phosphate, pH 6.4, 100 mM NaCl) and placed into a fluorimetric cell. Further analysis was conducted as described for the case of an outwardly directed gradient of […]. Analysis of the electrostatic potential on the surface of liposomes. LUVs (100 μL of stock solution, 100 mM KCl inside and outside or 75 mM Na2SO4 inside and outside) were suspended in 1.9 mL of 100 mM NaCl buffer containing 60 nM safranin O (a potential-sensitive dye). Safranin O emission was monitored at 580 nm with excitation at 520 nm. During the course of the experiment, 20 μL of a 0-0.12 mM DMSO solution of valinomycin or 0-2 mM of 3-8 DMSO solution was added. Experiments were completed by injection of 20 μL of 1 mM aqueous solution of the defect-inductive peptide melittin.

[3] = 4 mol %, NaCl-loaded liposomes in Na2SO4 buffer

stability of the channels (open states) [1]: stable
Structure (SMILES): CCCCNC(=O)COc1c2cccc1Cc1cccc(c1OCC(=O)NCCCC)Cc1cccc(c1OCC(=O)NCCCC)Cc1cccc(c1OCC(=O)NCCCC)C2 [calix[4]arene tetrabutylamide 2, Calix[4]arene tetrabutylamide]
centre of the conductance distribution ([1]; 480 events, 1 M KCl): ~100 pS

Structure (SMILES): CCCCNC(=O)COc1ccccc1Cc1cccc(Cc2ccccc2OCC(=O)NCCCC)c1OCC(=O)NCCCC [trimer 3, Tris-(N-butyl-2-phenoxyacetamide)]
pH gradient generated [2, 3]: approximately are pH unit
time to reach the pH gradient [2, 3]: ≤ 1.5 minutes
time the pH gradient remained stable ([2]; 4 mol %, until the liposomes were lysed): 5 minutes
relative ability to alter the pH in liposomes under a Cl− gradient ([2]; NaCl-loaded liposomes in Na2SO4 buffer): most active compound in the series tested
transport under inwardly directed Cl− gradient ([2]; sulfate-loaded liposomes suspended in Cl− buffer): transports both Cl^− and H^+ into sulfate-loaded liposomes
